Patent US5219884A, “Immunosuppressant” (Taito Co., Ltd., priority 1990, dated 1993)
≈ marks a conversion by molar mass, not a printed value. Where two headings read alike, the source gives them in different places.

What was measured:
[1] = test system: mouse allogenic mixed lymphocyte reaction (BALB/c responder, C57BL/6 stimulator spleen cells); test: mouse allogenic mixed lymphocyte reaction (MLR), blastogenesis by 3H-thymidine uptake; format: cell-based
Experimental: The immunosuppressive activity of the compounds (I) and their lactones was assayed by using mouse allogenic mixed lymphocyte reaction (hereinafter sometimes abbreviated as MLR). Mouse allogenic MLR was carried out by mixed culture of the BALB/c mouse (H-2^d) spleen cells as the responder cells and the mitomycin C-treated C57BL/6 (H-2^b) spleen cells as the stimulator cells in equal amounts.
The responder cells were prepared as follows: The spleen was resected from 5- to 6-week-old male BALB/c mice, and single cell suspension of spleen cells was prepared by using the RPMI1640 culture medium (containing 60 μg/ml of kanamycin sulfate, 2 mM of L-glutamine, 10 mM of N-2-hydroxyethylpiperazine-N'-2-ethanesulfonate (HEPES) and 0.1% sodium hydrogencarbonate) to which heat-inactivated fetal calf serum (hereinaftersometimes abbreviated as FCS) had been added to 5%. After hemolytic treatment, the cell suspension was adjusted to a concentration of 10^7 cells/ml by using the RPMI1640 culture medium supplemented with 10^-4 M 2-mercaptoethanol and 20% FCS, and was used as the responder cell suspension.
The stimulator cells were prepared as follows:
The spleen was resected from 5- to 6-week-old male C57BL/6 mice, and single cell suspension of spleen cells was prepared by using the RPMI1640 culture medium. After hemolytic treatment, the cells were treated with 40 μg/ml of mitomycin C at 37° C. for 60 minutes. After washing three times, the concentration of the cell suspension was adjusted to 10^7 cells/ ml by using the RPMI1640 culture medium supplemented with 10^-4 M 2-mercaptoethanol and 20% FCS, and was used as the stimulator cell suspension.
Fifty μl of the responder cell suspension, 50μl of the stimulator cell suspension prepared by the above method, and 100 μl of the test substance were placed in 96-well microculture plates, and were cultured at 37° C. in an atmosphere of 5% carbon dioxide for 4 days.
The blastogenesis of lymphocytes was assayed by a method of ^3 H-thymidine uptake as an index. That is, after termination of the culture, 0.5 μCi/well of ^3 H-thymidine was added and cultured for 4 hours. Cells were harvested by a cell-harvester, and the radioactivity incorporated into the cells was determined by a liquid scintillation counter to obtain the index of blastogenesis of lymphocytes in the mouse allogenic MLR. The suppression of the mouse allogenic MLR was evaluated by calculating the percent suppression by the following formula. [formula]
The test substance was dissolved in methanol or suspended in a mixture of methanol and acetic acid, and then diluted with the RPMI1640 culture medium.

[2] = test system: PC-14; test: in vitro; format: cell-based, human
Experimental: (§1) Cytotoxicity to human tumor cell lines was examined as follows:
(§2) Cells of human cell lines, K562, MOLT4, U937, HL60, KATOIII, KB, PC-6, PC-14 and CCRF-CEM were separately suspended to the concentration of 2×10^5 cells/ml in the RPMI1640 culture medium supplemented with 20% FCS. Fifty μl of this suspension was added to each well of 96-well microculture plates to which 50 μl of the test solution had been added. After culturing at 37° C. in an atmosphere of 5% carbon dioxide for 72 hours, the absorbancy at 550 nm was measured in the same way as the colorimetry using MTT in Experimental Example 1, and the percent suppression was calculated in the same manner as in Experimental Example 14, which was used as the index of cytotoxicity.

[3] = test system: CCRF-CEM; test: in vitro; format: cell-based, human
Experimental: as §1, §2

[4] = test system: U937; test: in vitro; format: cell-based, human
Experimental: as §1, §2

[5] = in vitro; format: cell-based, human; details: human, read-out: Suppression
Experimental: as §1, §2

[6] = test system: HL60; test: in vitro; format: cell-based, human
Experimental: as §1, §2

[7] = test system: K562; test: in vitro; format: cell-based, human
Experimental: as §1, §2

[8] = test system: KB; test: in vitro; format: cell-based, human
Experimental: as §1, §2

[9] = test system: mouse L929 cells; test: cytotoxicity to mouse L929 cells; format: cell-based; details: 550 nm
Experimental: Cytotoxicity to mouse L929 cells was assayed as follows:
L929 cells were suspended to the concentration of 1.5×10^5 cells/ml in the F12 culture medium supplemented with 10% FCS. One hundred μl of the suspension was added to each well of 96-well microculture plates, and cultured at 37° C. in an atmosphere of 5% carbon dioxide for 24 hours, to which 100 μl of the test solution was added and cultured for further 48 hours. After the culture, 100 μl of the supernatant was removed and the absorbancy at 550 nm was measured in the same way as the colormetry using MTT in Experimental Example 1. The percent suppression was calculated by the following formula used as the index of cytotoxicity. [formula]

[10] = cytotoxicity to tumor cell line MOLT4; format: cell-based, human; details: human, molt4 cells, read-out: Suppression
Experimental: as §1, §2

[11] = test system: MOLT4; test: cytotoxicity to tumor cell line MOLT4; format: cell-based, human
Experimental: as §1, §2

[12] = Mus musculus, Lymphocyte, read-out: Suppression

CCCCCCC(=O)CCCCCC/C=C/CC(O)C(O)C(N)(CO)C(=O)O (stereo not shown) [Example 1]
3H-thymidine uptake ([1]; 0.001 μg/ml): 14760 cpm
3H-thymidine uptake ([1]; 0.01 μg/ml): 6436 cpm
3H-thymidine uptake ([1]; 0.1 μg/ml): 686 cpm
3H-thymidine uptake ([1]; 1 μg/ml): 698 cpm
IC50 ([1]; Mus musculus, Lymphocyte, read-out: 50%-inhibition concentration (IC50)): 7.1 ng/mL (≈ 0.0177 µM)
inhibition at 0.001 µg/mL [1, 12]: 0%
inhibition at 0.01 µg/mL [1, 12]: 59.2%
inhibition at 0.1 µg/mL [1, 12]: 100%
inhibition at 1 µg/mL [1, 12]: 100%
Absorbancy ([2]; 0.01 μg/ml): 0.801
Absorbancy ([2]; 0.1 μg/ml): 0.770
Absorbancy ([2]; 1.0 μg/ml): 0.732
Absorbancy ([2]; 10.0 μg/ml): 0.751
Absorbancy ([2]; 100.0 μg/ml): 0.074
Absorbancy ([3]; 0.01 μg/ml): 0.678
Absorbancy ([3]; 0.1 μg/ml): 0.709
Absorbancy ([3]; 1.0 μg/ml): 0.660
Absorbancy ([3]; 10.0 μg/ml): 0.637
Absorbancy ([3]; 100.0 μg/ml): 0.013
Absorbancy ([4]; 0.1 μg/ml): 0.619
Absorbancy ([4]; 1.0 μg/ml): 0.567
Absorbancy ([4]; 10.0 μg/ml): 0.497
Absorbancy ([4]; 100.0 μg/ml): 0.156
cytotoxicity at 72 h ([5]; hl60 cells, 1.0 μg/ml): 38.2%
cytotoxicity at 72 h ([5]; pc-14 cells, 1.0 μg/ml): 7%
Absorbancy ([6]; 0.1 μg/ml): 0.402
Absorbancy ([6]; 1.0 μg/ml): 0.390
Absorbancy ([6]; 10.0 μg/ml): 0.377
Absorbancy ([6]; 100.0 μg/ml): 0.101
Absorbancy ([7]; 0.1 μg/ml): 0.886
Absorbancy ([7]; 1.0 μg/ml): 0.905
Absorbancy ([7]; 10.0 μg/ml): 0.929
Absorbancy ([7]; 100.0 μg/ml): 0.583
Absorbancy ([8]; 0.01 μg/ml): 0.898
Absorbancy ([8]; 0.1 μg/ml): 0.865
Absorbancy ([8]; 1.0 μg/ml): 0.879
Absorbancy ([8]; 10.0 μg/ml): 0.886
Absorbancy ([8]; 100.0 μg/ml): 0.025
Absorbancy ([9]; 1 μg/ml): 0.699
Absorbancy ([9]; 10 μg/ml): 0.693
Absorbancy ([9]; 100 μg/ml): 0.321
cytotoxicity at 72 h ([10]; 0.1 μg/ml): 9.4%
Absorbancy ([11]; 0.1 μg/ml): 0.560
Absorbancy ([11]; 1.0 μg/ml): 0.559
Absorbancy ([11]; 10.0 μg/ml): 0.499
Absorbancy ([11]; 100.0 μg/ml): 0.074

CCCCCCC(=O)CCCCCC/C=C/CC1OC(=O)C(N)(CO)C1O (stereo not shown) [Example 4]
3H-thymidine uptake ([1]; 0.001 μg/ml): 29598 cpm
3H-thymidine uptake ([1]; 0.01 μg/ml): 10394 cpm
3H-thymidine uptake ([1]; 0.1 μg/ml): 1414 cpm
inhibition at 0.001 µg/mL ([1]; Mus musculus, Lymphocyte, 0.001 μg/ml, read-out: Suppression): 0.4%
inhibition at 0.01 µg/mL ([1]; Mus musculus, Lymphocyte, 0.01 μg/ml, read-out: Suppression): 70%
inhibition at 0.1 µg/mL ([1]; Mus musculus, Lymphocyte, 0.1 μg/ml, read-out: Suppression): 100%
Absorbancy ([2]; 0.1 μg/ml): 0.656
Absorbancy ([2]; 1.0 μg/ml): 0.679
Absorbancy ([2]; 10.0 μg/ml): 0.657
Absorbancy ([2]; 100.0 μg/ml): 0.030
Absorbancy ([3]; 0.1 μg/ml): 0.564
Absorbancy ([3]; 1.0 μg/ml): 0.556
Absorbancy ([3]; 10.0 μg/ml): 0.389
Absorbancy ([3]; 100.0 μg/ml): 0.004
Absorbancy ([4]; 0.1 μg/ml): 0.313
Absorbancy ([4]; 1.0 μg/ml): 0.384
Absorbancy ([4]; 10.0 μg/ml): 0.362
Absorbancy ([4]; 100.0 μg/ml): 0.004
cytotoxicity at 72 h ([5]; ccrf-cem cells, 0.1 μg/ml): 11.3%
cytotoxicity at 72 h ([5]; ccrf-cem cells, 1.0 μg/ml): 12.6%
cytotoxicity at 72 h ([5]; ccrf-cem cells, 10.0 μg/ml): 37.4%
cytotoxicity at 72 h ([5]; ccrf-cem cells, 100.0 μg/ml): 99.4%
cytotoxicity at 72 h ([5]; hl60 cells, 0.1 μg/ml): 23.4%
cytotoxicity at 72 h ([5]; hl60 cells, 1.0 μg/ml): 13.3%
cytotoxicity at 72 h ([5]; hl60 cells, 10.0 μg/ml): 21.1%
cytotoxicity at 72 h ([5]; hl60 cells, 100.0 μg/ml): 97.7%
cytotoxicity at 72 h ([5]; k562 cells, 0.1 μg/ml): 14.7%
cytotoxicity at 72 h ([5]; k562 cells, 1.0 μg/ml): 8.3%
cytotoxicity at 72 h ([5]; k562 cells, 10.0 μg/ml): 14.5%
cytotoxicity at 72 h ([5]; k562 cells, 100.0 μg/ml): 98.9%
cytotoxicity at 72 h ([5]; katoiii cells, 0.1 μg/ml): 5.3%
cytotoxicity at 72 h ([5]; katoiii cells, 1.0 μg/ml): 6.7%
cytotoxicity at 72 h ([5]; katoiii cells, 10.0 μg/ml): 25.8%
cytotoxicity at 72 h ([5]; katoiii cells, 100.0 μg/ml): 97.9%
cytotoxicity at 72 h ([5]; kb cells, 0.1 μg/ml): 19%
cytotoxicity at 72 h ([5]; kb cells, 1.0 μg/ml): 2.5%
cytotoxicity at 72 h ([5]; kb cells, 10.0 μg/ml): 33.5%
cytotoxicity at 72 h ([5]; kb cells, 100.0 μg/ml): 99%
cytotoxicity at 72 h ([5]; pc-14 cells, 0.1 μg/ml): 0%
cytotoxicity at 72 h ([5]; pc-14 cells, 1.0 μg/ml): 0%
cytotoxicity at 72 h ([5]; pc-14 cells, 10.0 μg/ml): 0%
cytotoxicity at 72 h ([5]; pc-14 cells, 100.0 μg/ml): 95.3%
cytotoxicity at 72 h ([5]; u937 cells, 0.1 μg/ml): 16.1%
cytotoxicity at 72 h ([5]; u937 cells, 1.0 μg/ml): 0%
cytotoxicity at 72 h ([5]; u937 cells, 10.0 μg/ml): 2.9%
cytotoxicity at 72 h ([5]; u937 cells, 100.0 μg/ml): 99%
Absorbancy ([6]; 0.1 μg/ml): 0.265
Absorbancy ([6]; 1.0 μg/ml): 0.300
Absorbancy ([6]; 10.0 μg/ml): 0.273
Absorbancy ([6]; 100.0 μg/ml): 0.008
Absorbancy ([7]; 0.1 μg/ml): 0.524
Absorbancy ([7]; 1.0 μg/ml): 0.563
Absorbancy ([7]; 10.0 μg/ml): 0.525
Absorbancy ([7]; 100.0 μg/ml): 0.007
Absorbancy ([8]; 0.1 μg/ml): 0.884
Absorbancy ([8]; 1.0 μg/ml): 1.065
Absorbancy ([8]; 10.0 μg/ml): 0.726
Absorbancy ([8]; 100.0 μg/ml): 0.012
cytotoxicity at 72 h ([10]; 0.1 μg/ml): 14%
cytotoxicity at 72 h ([10]; 1.0 μg/ml): 14.2%
cytotoxicity at 72 h ([10]; 10.0 μg/ml): 22.8%
cytotoxicity at 72 h ([10]; 100.0 μg/ml): 97.1%
Absorbancy ([11]; 0.1 μg/ml): 0.351
Absorbancy ([11]; 1.0 μg/ml): 0.350
Absorbancy ([11]; 10.0 μg/ml): 0.315
Absorbancy ([11]; 100.0 μg/ml): 0.012
